# Experimental data as given in patent US7396837B2, “Antitumoral analogs of lamellarins” (Pharma Mar, S.A.U., priority 2002, dated 2008).
# Where two headings read alike, the source gives them in different places.
# Key:
# Assay type in all cases: cell-based
# [1] = tested on: LNCaP; test: SRB colorimetric cell growth inhibition assay, LNCaP; details: Homo sapiens, LNCaP, LN-caP; for GI50: GI=growth inhibition, read-out: GI50 LN-caP; for CC50: LC=cell killing (cytotoxic effect), read-out: LC50 LN-caP; for IC (TGI): TGI=total growth inhibition (cytostatic effect), read-out: TGI LN-caP
# Summary of the method: (§1)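 Cells are kept under uninterrupted exposure to compound. Staining with sulforhodamine B then measures cell growth and viability. Triplicate data give mean ± SD, from which growth inhibition, total growth inhibition and lethal concentration values follow.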
# [2] = tested on: A-549; test: SRB colorimetric cell growth inhibition assay, A-549; details: Homo sapiens, A549, A-549; for GI50: GI=growth inhibition, read-out: GI50 A-549; for CC50: read-out: LC50 A-549; for IC (TGI): read-out: TGI A-549
# Summary of the method: as §1
# [3] = tested on: IGROV-ET; test: SRB colorimetric cell growth inhibition assay, IGROV-ET (ET-743 resistant); details: Homo sapiens, IGROV-ET; for GI50: GI=growth inhibition, read-out: GI50 IGROV-ET; for CC50: LC=cell killing (cytotoxic effect), read-out: LC50 IGROV-ET; for IC (TGI): TGI=total growth inhibition (cytostatic effect), read-out: TGI IGROV-ET
# Summary of the method: as §1
# [4] = tested on: SK-BR-3; test: SRB colorimetric cell growth inhibition assay, SK-BR-3; details: Homo sapiens, SK-BR-3, SK-BR-3; for GI50: GI=growth inhibition, read-out: GI50 SK-BR-3; for CC50: LC=cell killing (cytotoxic effect), read-out: LC50 SK-BR-3; for IC (TGI): TGI=total growth inhibition (cytostatic effect), read-out: TGI SK-BR-3
# Summary of the method: as §1
# [5] = tested on: PANC-1; test: SRB colorimetric cell growth inhibition assay, PANC-1; details: Homo sapiens, PANC-1, PANC-1; for GI50: GI=growth inhibition, read-out: GI50 PANC-1; for CC50: read-out: LC50 PANC-1; for IC (TGI): read-out: TGI PANC-1
# Summary of the method: as §1
# [6] = tested on: DU-145; test: SRB colorimetric cell growth inhibition assay, DU-145; details: Homo sapiens, DU-145, DU-145; for GI50: GI=growth inhibition, read-out: GI50 DU-145; for CC50: LC=cell killing (cytotoxic effect), read-out: LC50 DU-145; for IC (TGI): TGI=total growth inhibition (cytostatic effect), read-out: TGI DU-145
# Summary of the method: as §1
# [7] = tested on: IGROV; test: SRB colorimetric cell growth inhibition assay, IGROV; details: Homo sapiens, IGROV; for GI50: GI=growth inhibition, read-out: GI50 IGROV; for CC50: LC=cell killing (cytotoxic effect), read-out: LC50 IGROV; for IC (TGI): TGI=total growth inhibition (cytostatic effect), read-out: TGI IGROV
# Summary of the method: as §1
# [8] = SRB colorimetric cell growth inhibition assay, H-MEC-1; details: human, H-MEC-1 cells, H-MEC-1; LC=cell killing (cytotoxic effect); read-out: LC50 H-MEC-1
# From the text: (§2) Inhibition of Cell Growth by Colorimetric Assay.
# (§3) A colorimetric type of assay, using sulforhodamine B (SRB) reaction has been adapted for a quantitative measurement of cell growth and viability (following the technique described by P. A. Skehan, et al., J. Natl. Cancer Inst. 1990, 82, 1107-1112).
# (§4) This form of assay employs 96 well cell culture microplates of 9 mm diameter (T. Mosmann et al., J. of Immunological Methods 1983, 65, 55-63; G. T. Faircloth et al., J. of Tissue and Culture Methods 1988, 11, 201-205).
# (§5) Most of the cell lines are obtained from American Type Culture Collection (ATCC) derived from different human cancer types.
# (§6) The values for mean +/− SD of data from triplicate wells are calculated. Some parameters for cellular responses can be calculated: GI=growth inhibition, TGI=total growth inhibition (cytostatic effect) and LC=cell killing (cytotoxic effect).
# [9] = tested on: H-MEC-1; test: as above; details: Homo sapiens, HMEC-1, H-MEC-1; for GI50: GI=growth inhibition; for IC (TGI): TGI=total growth inhibition (cytostatic effect), read-out: TGI H-MEC-1
# From the text: as §2, §3, §4, §5, §6
# [10] = tested on: LoVo-Dox; test: SRB colorimetric cell growth inhibition assay, LoVo-Dox (MDR); details: Homo sapiens, LOVO-DOX; for GI50: GI=growth inhibition, read-out: GI50 LOVO-DOX; for CC50: read-out: LC50 LOVO-DOX; for IC (TGI): read-out: TGI LOVO-DOX
# Summary of the method: as §1
# [11] = tested on: SK-MEL-28; test: SRB colorimetric cell growth inhibition assay, SK-MEL-28; details: Homo sapiens, SK-MEL-28, MEL-28; for GI50: GI=growth inhibition, read-out: GI50 MEL-28; for CC50: LC=cell killing (cytotoxic effect), read-out: LC50 MEL-28; for IC (TGI): TGI=total growth inhibition (cytostatic effect), read-out: TGI MEL-28
# Summary of the method: as §1
# [12] = tested on: LoVo; test: SRB colorimetric cell growth inhibition assay, LoVo; details: Homo sapiens, LoVo; for GI50: GI=growth inhibition, read-out: GI50 LOVO; for CC50: read-out: LC50 LOVO; for IC (TGI): read-out: TGI LOVO
# Summary of the method: as §1
# [13] = tested on: SKOV-3; test: SRB colorimetric cell growth inhibition assay, SKOV-3; details: Homo sapiens; for GI50: SK-OV-3, SKOV-3, GI=growth inhibition, read-out: GI50 SKOV-3; for CC50 / IC (TGI): SK-OV-3, SKOV-3; for CC50: LC=cell killing (cytotoxic effect), read-out: LC50 SKOV-3; for IC (TGI): TGI=total growth inhibition (cytostatic effect), read-out: TGI SKOV-3
# Summary of the method: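 SRB colorimetric readout of cell growth/viability in 96-well format. Means ± SD from triplicate wells; GI (growth inhibition), TGI (total growth inhibition, cytostatic) and LC (cell killing, cytotoxic) parameters derived.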
# [14] = tested on: K-562; test: SRB colorimetric cell growth inhibition assay, K-562; details: Homo sapiens, K562, K-562; for GI50: GI=growth inhibition, read-out: GI50 K-562; for CC50: read-out: LC50 K-562; for IC (TGI): read-out: TGI K-562
# Summary of the method: as §1
# [15] = tested on: HT-29; test: SRB colorimetric cell growth inhibition assay, HT-29; details: Homo sapiens, HT-29, HT-29; for GI50: GI=growth inhibition, read-out: GI50 HT-29; for CC50: read-out: LC50 HT-29; for IC (TGI): read-out: TGI HT-29
# Summary of the method: as §1
# [16] = LC=cell killing (cytotoxic effect)
# [17] = TGI=total growth inhibition (cytostatic effect)
# [18] = cell killing (cytotoxic effect)
# [19] = total growth inhibition (cytostatic effect)
compound,measurement,setting,value
COc1cc(-c2c3n(c4c(=O)oc5cc(OC(=O)[C@@H](N)COCc6ccccc6)c(OC)cc5c24)CCc2c-3cc(OC)c(OC)c2OC(=O)[C@@H](N)COCc2ccccc2)ccc1OC(=O)[C@@H](N)COCc1ccccc1 [Compound 66],GI50,[1],0.89 µM
same,CC50,[1],4.03 µM
same,IC (TGI),[1],1.89 µM
same,GI50,[2],1.86 µM
same,CC50,[2]; [16],6.43 µM
same,IC (TGI),[2]; [17],3.46 µM
same,GI50,[3],1.22 µM
same,CC50,[3],6.87 µM
same,IC (TGI),[3],2.9 µM
same,GI50,[4],0.434 µM
same,CC50,[4],7.12 µM
same,IC (TGI),[4],1.82 µM
same,GI50,[5],1.95 µM
same,CC50,[5]; [16],7.12 µM
same,IC (TGI),[5]; [17],7.12 µM
same,GI50,[6],1.73 µM
same,CC50,[6],7.12 µM
same,IC (TGI),[6],3.65 µM
same,GI50,[7],1.35 µM
same,CC50,[7],6.75 µM
same,IC (TGI),[7],3.02 µM
same,CC50,[8],4.93 µM
same,GI50,[9],1.52 µM
same,IC (TGI),[9],2.73 µM
same,GI50,[10],1.91 µM
same,CC50,[10]; [16],7.12 µM
same,IC (TGI),[10]; [17],5.56 µM
same,GI50,[11],1.42 µM
same,CC50,[11],4.55 µM
same,IC (TGI),[11],2.55 µM
same,GI50,[12],2.19 µM
same,CC50,[12]; [16],7.12 µM
same,IC (TGI),[12]; [17],7.12 µM
same,GI50,[13],2.85 µM
same,CC50,[13],7.12 µM
same,IC (TGI),[13],6.28 µM
same,GI50,[14],0.982 µM
same,CC50,[14]; [16],7.12 µM
same,IC (TGI),[14]; [17],2.8 µM
same,GI50,[15],2.77 µM
same,CC50,[15]; [16],7.12 µM
same,IC (TGI),[15]; [17],6.77 µM
COc1cc2ccn3c(c(-c4ccc(OC(=O)[C@H](C)NC(=O)OC(C)(C)C)c(OC)c4)c4c5cc(OC)c(OC(=O)[C@H](C)NC(=O)OC(C)(C)C)cc5oc(=O)c43)c2cc1OC [Compound 77],GI50,[1],7.51 µM
same,CC50,[1],11.7 µM
same,IC (TGI),[1],11.7 µM
same,GI50,[2],6.69 µM
same,CC50,[2]; [16],11.7 µM
same,IC (TGI),[2]; [17],11.7 µM
same,GI50,[3],0.258 µM
same,CC50,[3],11.7 µM
same,IC (TGI),[3],1.17 µM
same,GI50,[4],3.53 µM
same,CC50,[4],11.7 µM
same,IC (TGI),[4],11.7 µM
same,GI50,[5],4.46 µM
same,CC50,[5]; [16],11.7 µM
same,IC (TGI),[5]; [17],11.7 µM
same,GI50,[6],0.8 µM
same,CC50,[6],11.7 µM
same,IC (TGI),[6],3.96 µM
same,GI50,[7],5.92 µM
same,CC50,[7],11.7 µM
same,IC (TGI),[7],8.84 µM
same,CC50,[8],11.7 µM
same,GI50,[9],2.71 µM
same,IC (TGI),[9],11.7 µM
same,GI50,[10],10.2 µM
same,CC50,[10]; [16],11.7 µM
same,IC (TGI),[10]; [17],11.7 µM
same,GI50,[11],3.29 µM
same,CC50,[11],11.7 µM
same,IC (TGI),[11],10.1 µM
same,GI50,[12],11.7 µM
same,CC50,[12]; [16],11.7 µM
same,IC (TGI),[12]; [17],11.7 µM
same,GI50,[13],7.52 µM
same,CC50,[13],11.7 µM
same,IC (TGI),[13],11.7 µM
same,GI50,[14],2.13 µM
same,CC50,[14]; [16],11.7 µM
same,IC (TGI),[14]; [17],6.15 µM
same,GI50,[15],11.7 µM
same,CC50,[15]; [16],11.7 µM
same,IC (TGI),[15]; [17],11.7 µM
COc1cc(-c2c3c4cc(OC)c(OC(C)C)cc4oc(=O)c3n3ccc4c(OC(C)C)c(OC)c(OC)c(COS(C)(=O)=O)c4c23)ccc1OC(C)C [Compound 101],GI50,[1],8.25 µM
same,CC50,[1],13.1 µM
same,IC (TGI),[1],13.1 µM
same,GI50,[2],13.1 µM
same,CC50,[2]; [18],13.1 µM
same,IC (TGI),[2]; [19],13.1 µM
same,GI50,[3],13.1 µM
same,CC50,[3],13.1 µM
same,IC (TGI),[3],13.1 µM
same,GI50,[4],13.1 µM
same,CC50,[4],13.1 µM
same,IC (TGI),[4],13.1 µM
same,GI50,[5],13.1 µM
same,CC50,[5]; [18],13.1 µM
same,IC (TGI),[5]; [19],13.1 µM
same,GI50,[6],13.1 µM
same,CC50,[6],13.1 µM
same,IC (TGI),[6],13.1 µM
same,GI50,[7],11.9 µM
same,CC50,[7],13.1 µM
same,IC (TGI),[7],13.1 µM
same,CC50,[8],10.5 µM
same,GI50,[9],4.66 µM
same,IC (TGI),[9],6.99 µM
same,GI50,[10],13.1 µM
same,CC50,[10]; [18],13.1 µM
same,IC (TGI),[10]; [19],13.1 µM
same,GI50,[11],13.1 µM
same,CC50,[11],13.1 µM
same,IC (TGI),[11],13.1 µM
same,GI50,[12],13.1 µM
same,CC50,[12]; [18],13.1 µM
same,IC (TGI),[12]; [19],13.1 µM
same,GI50,[13],0.791 µM
same,CC50,[13],5.71 µM
same,IC (TGI),[13],2.34 µM
same,GI50,[14],2.19 µM
same,CC50,[14]; [18],5.73 µM
same,IC (TGI),[14]; [19],3.53 µM
same,GI50,[15],13.1 µM
same,CC50,[15]; [18],13.1 µM
same,IC (TGI),[15]; [19],13.1 µM
